According to ChEMBL document CHEMBL5357073, “Novel Heterocyclic PAD4 Inhibitors for Treating Multiple Diseases” (ACS Med Chem Lett, 2024):
pIC50: −log10 of the molar value.

Target: Protein-arginine deiminase type-4 (Homo sapiens, UniProt Q9UM07)
Assay: Inhibition of human recombinant PAD4 using TSTGGRQGSHH peptide as substrate preincubated for 30 mins followed by substrate addition and measured after 90 mins by RapidFire mass spectroscopy analysis

Protein-arginine deiminase type-4, sequence (Q9UM07 whole entry): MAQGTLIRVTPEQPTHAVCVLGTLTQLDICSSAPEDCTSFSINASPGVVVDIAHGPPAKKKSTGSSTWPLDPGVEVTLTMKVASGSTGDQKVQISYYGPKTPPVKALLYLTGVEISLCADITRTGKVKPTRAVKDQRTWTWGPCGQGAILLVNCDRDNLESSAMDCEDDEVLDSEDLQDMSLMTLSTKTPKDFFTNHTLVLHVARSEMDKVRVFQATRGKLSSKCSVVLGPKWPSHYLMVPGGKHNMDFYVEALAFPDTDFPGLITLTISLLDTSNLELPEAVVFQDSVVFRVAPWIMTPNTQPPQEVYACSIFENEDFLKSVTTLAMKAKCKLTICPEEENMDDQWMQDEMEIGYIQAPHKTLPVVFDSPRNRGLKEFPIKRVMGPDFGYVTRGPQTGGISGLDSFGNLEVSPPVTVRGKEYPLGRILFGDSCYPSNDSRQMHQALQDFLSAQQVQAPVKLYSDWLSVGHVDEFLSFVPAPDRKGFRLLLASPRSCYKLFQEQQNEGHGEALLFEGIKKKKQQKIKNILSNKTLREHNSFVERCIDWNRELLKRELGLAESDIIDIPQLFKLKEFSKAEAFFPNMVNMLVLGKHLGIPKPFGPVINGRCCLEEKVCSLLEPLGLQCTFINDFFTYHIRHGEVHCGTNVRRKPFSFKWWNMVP

pIC50	Compound
≥ 8.00	Cn1c(-c2cc3cccc(OCCn4cnnn4)c3n2CC2CC2)nc2cc3c(cc21)CCN(CC(N)CF)C3=O (stereo unspecified)
≥ 8.00	Cn1c(-c2cc3cccc(OCCn4ccnc4)c3n2CC2CC2)nc2cc3c(cc21)CCN(CC(N)CF)C3=O (stereo unspecified)
≥ 8.00	Cn1c(-c2cc3cccc(OCCn4cncn4)c3n2CC2CC2)nc2cc3c(cc21)CCN(CC(N)CF)C3=O (stereo unspecified)
≥ 8.00	Cn1c(-c2cc3cccc(OCCc4cnoc4)c3n2CC2CC2)nc2cc3c(cc21)CCN(CC(N)CF)C3=O (stereo unspecified)

The remaining lines, values behind:

Compound	pIC50
COC(=O)N(C)CCOc1cccc2cc(-c3nc4cc5c(cc4n3C)CCN(CC(N)CF)C5=O)n(CC3CC3)c12 (stereo unspecified)	≥ 8.00
Cn1c(-c2cc3cccc(OCC4CNC(=O)O4)c3n2CC2CC2)nc2cc3c(cc21)CCN(CC(N)CF)C3=O (stereo unspecified)	≥ 8.00
